Assay type in all cases: in vivo
Data set [1] concerns Ancylostoma caninum. The data set is described as follows: Experimental hookworm infections in dogs, A. caninum. The note with it: oral, point dose of no greater than 25 mg/kg bodyweight, by Day 3. The method, then:
(§1) Activity of Example 1 Compound Against Experimental Hookworm Infections in Dogs
(§2) The antihelminthic activity of the Example 1 compound, when administered orally at a point dose of no greater than 25 mg/kg bodyweight, is evaluated against experimental infections of the hookworms Ancylostoma caninum and Uncinaria stenocephala in dogs. Four (4) beagle dogs in good health are inoculated with 3rd-stage infective larvae of each hookworm species, per W.A.A.V.P. Guidelines (Jacobs, D. E., A. Arakawa, C. H. Courtney, et al., 1994. Vet. Parasitol. 52: 179-202) so as to provide sufficient time for development of full patency. Fecal egg counts are conducted twice before treatment (Day-2 and Day-1). On Day 0, test article (technical active dissolved in 55-65% polyethylene glycol-300, 25-35% propylene glycol and 10-20% water) is administered to all four dogs via esophageal feeding tube. Fecal egg counts are conducted post-treatment on Days 3, 5 and 7. The average of two pre-treatment fecal egg counts is used for comparison to post-treatment egg counts for the purposes of calculating efficacy (geometric mean % reduction in fecal egg count) against each hookworm species.

Data set [2] relates to Uncinaria stenocephala. The experiment in a line: Experimental hookworm infections in dogs, U. stenocephala. The settings on record: oral, point dose of no greater than 25 mg/kg bodyweight, by Day 5. The method, then: as §1, §2
A short description of data set [3]: Tolerability of treatment in hookworm-infected dogs. The settings on record: oral, point dose of no greater than 25 mg/kg bodyweight. As for the experimental part: as §2

Regarding `C[C@](C#N)(COc1ccc2c(c1Cl)B(O)OC2)NC(=O)c1ccc(OC(F)(F)F)cc1` (single isomer, unassigned) [Example 1], the “reduction in A. caninum fecal egg counts” value in data set [1] is listed as more than 50%. In data set [2], the “reduction in U. stenocephala fecal egg count” value is more than 50%. Further, the tolerability of treatment entry in data set [3] was “well tolerated”.
